Publication PMC12134470 (International Journal of Nanomedicine, 2025)

How the values were obtained:
[1] = tested on: MDA-MB-468; assay: Antiproliferative activity, SRB assay; format: cell-based, human; conditions: 72 hours of exposure; tested 5–625 μM
[2] = cited from earlier work

Question: With `CC(C)Cc1ccc([C@H](C)C(=O)O)cc1` [DXI, dexibuprofen] as the compound, how does the “IC50 MDA-MB-468” value [1] read?
Answer: did not express any cytotoxic effect

Question: And the Water solubility [2]?
Answer: 68.4 µg/mL
